Assays:
[1] = test system: patients with baseline hsCRP ≥2.0 mg/L (safety population); assay: ANCHOR post-hoc subgroup: treatment-emergent adverse events; format: in vivo, human
Source text: The evaluation of safety included monitoring of treatment-emergent adverse events (TEAEs), defined as any AEs that began after the first dose of study medication or that worsened in severity during the double-blind treatment period. TEAEs reported herein included total TEAEs and those occurring in 3% […] of patients in any treatment group of the overall ANCHOR study population (i.e., nausea, diarrhea, nasopharyngitis, and arthralgia). The median difference in percent change from baseline between 4 g per day EPA-E and placebo groups for the primary efficacy variable and additional assessments were estimated with the Hodges-Lehmann method (P values from the Wilcoxon rank-sum test for treatment comparisons) where departures from normality were observed; for normally distributed parameters, an ANCOVA model was used with least square means (LS) and standard error (SE). Missing values were imputed using the last-observation-carried-forward method. For all post hoc analyses, the alpha level for statistical significance was 0.05. Safety analyses were based on the safety population (all randomized patients who received at least one dose of the study drug).

[2] = test system: statin-treated patients with fasting TG ≥200 and <500 mg/dL and baseline hsCRP ≥2.0 mg/L; assay: ANCHOR post-hoc subgroup: lipid parameters, lipoproteins, markers of oxidation and inflammation; format: in vivo, human; conditions: for reduction of TG compared with placebo: printed as a reduction
Procedure: A multi-center, placebo-controlled, randomized, double-blind, 12-week study is performed to evaluate the efficacy and safety of >96% E-EPA in patients with fasting triglyceride levels ≥200 mg/dl and <500 mg/dl despite statin therapy (the mean of two qualifying entry values needs to be ≥185 mg/dl and at least one of the values needs to be ≥200 mg/dl). The primary objective of the study is to determine the efficacy of >96% E-EPA 2 g daily and 4 g daily, compared to placebo, in lowering fasting TG levels in patients with high risk for cardiovascular disease and with fasting TG levels ≥200 mg/dL and <500 mg/dL, despite treatment to LDL-C goal on statin therapy.
The population for this study is men and women >18 years of age with a body mass index ≤45 kg/m^2 with fasting TG levels greater than or equal to 200 mg/dl and less than 500 mg/dl and on a stable does of statin therapy (with or without ezetimibe). The statin must be atorvastatin, rosuvastatin or simvastatin. The dose of statin must be stable for ≥4 weeks prior to the LDL-C/TG baseline qualifying measurement for randomization. The statin dose will be optimal such that the patients are at their LDL-C goal at the LDL-C/TG baseline qualifying measurements. The same statin at the same dose will be continued until the study ends.
At the end of the 4-week diet and lifestyle stabilization period or the 6-week diet and stabilization and washout period, eligible patients will enter the 2-week LDL-C and TG qualifying period and will have their fasting LDL-C and TG levels measured at Visit 2 (Week-2) and Visit 3 (Week-1). Eligible patients must have an average fasting LDL-C level ≥40 mg/dL and <100 mg/dL and an average fasting TG level ≥200 mg/dL and <500 mg/dL to enter the 12-week double-blind treatment period. The LDL-C and TG levels for qualification will be based on the average (arithmetic mean) of the Visit 2 (Week-2) and Visit 3 (Week-1) values. If a patient's average LDL-C and/or TG levels from Visit 2 and Visit 3 fall outside the required range for entry into the study, an additional fasting lipid profile can be collected 1 week later at Visit 3.1. If a third sample is collected at Visit 3.1, entry into the study will be based on the average (arithmetic mean) of the values from Visit 3 and Visit 3.1.
After confirmation of qualifying fasting LDL-C and TG values, eligible patients will enter a 12-week, randomized, double-blind treatment period. At Visit 4 (Week 0), patients will be randomly assigned to 1 of the following treatment groups: • >96% E-EPA 2 g daily, • >96% E-EPA 4 g daily, or • Placebo.
>96% E-EPA is provided in 1 g liquid-filled, oblong, gelatin capsules. The matching placebo capsule is filled with light liquid paraffin and contains 0 g of >96% E-EPA. >96% E-EPA capsules are to be taken with food (i.e. with or at the end of a meal).
During the double-blind treatment period, patients will take 2 capsules (>96% E-EPA or matching placebo) in the morning and 2 capsules in the evening for a total of 4 capsules per day. • Patients in the >96% E-EPA 2 g/day treatment group will receive 1>96% E-EPA 1 g capsule and 1 matching placebo capsule in the morning and in the evening. • Patients in the >96% E-EPA 4 g/day treatment group will receive 2>96% E-EPA 1 g capsules in the morning and evening.
For TG, TC, HDL-C, LDL-C, calculated non-HDL-C, and VLDL-C, baseline will be defined as the average of Visit 4 (Week 0) and the preceding lipid qualifying visit (either Visit 3 [Week-1] or if it occurs, Visit 3.1) measurements. Baseline for all other efficacy parameters will be the Visit 4 (Week 0) measurement.
For TG, TC, HDL-C, LDL-C, calculated non-HDL-C, and VLDL-C, Week 12 endpoint will be defined as the average of Visit 6 (Week 11) and Visit 7 (Week 12) measurements.
Week 12 endpoint for all other efficacy parameters will be the Visit 7 (Week 12) measurement. […]

[3] = 4 g/day vs placebo, baseline to week 12, Hodges-Lehmann median
[4] = 4 g/day vs placebo, baseline to week 12, Hodges-Lehmann median, listed as EPA-E
[5] = 4 g/day, baseline to week 12, median

Q: How did the patients with arthralgia ([1]; 4 g per day) turn out when `CC/C=C\C/C=C\C/C=C\C/C=C\C/C=C\CCCC(=O)OCC` [Icosapent Ethyl, ethyl eicosapentaenoate] was run?
A: 2.3%

Q: What about the patients with diarrhea ([1]; 4 g per day) of the same compound?
A: 3.8%

Q: And the patients with nasopharyngitis ([1]; 4 g per day)?
A: 0.8%

Q: What about the patients with nausea ([1]; 4 g per day) of the same compound?
A: 2.3%

Q: What about the “patients with TEAEs (irrespective of causality)” value ([1]; 4 g per day, 60 of 131) of the same compound?
A: 45.8%

Q: And the “patients discontinued due to an AE” value ([1]; 4 g per day, subarachnoid hemorrhage, ruptured cerebral aneurysm, brain edema, not considered related)?
A: One

Q: And the “Patients With TEAEs: Any TEAE” value ([1]; 4 g/day, n = 131)?
A: 60 (45.8) n (%)

Q: What about the “Patients With TEAEs: Arthralgia” value ([1]; 4 g/day, n = 131) of the same compound?
A: 3 (2.3) n (%)

Q: And the “Patients With TEAEs: Diarrhea” value ([1]; 4 g/day, n = 131)?
A: 5 (3.8) n (%)

Q: What about the “Patients With TEAEs: Nasopharyngitis” value ([1]; 4 g/day, n = 131) of the same compound?
A: 1 (0.8) n (%)

Q: And the “Patients With TEAEs: Nausea” value ([1]; 4 g/day, n = 131)?
A: 3 (2.3) n (%)

Q: And the “Apo B Median Difference in % Change From Baseline vs Placebo” value [2, 3]?
A: −7.4%

Q: What about the “Apo C-III Median Difference in % Change From Baseline vs Placebo” value [2, 3] of the same compound?
A: −16.0%

Q: And the “HDL-C Median Difference in % Change From Baseline vs Placebo” value [2, 3]?
A: −5.2%

Q: And the “ICAM-1 Median Difference in % Change From Baseline vs Placebo” value [2, 3]?
A: +1.1%

Q: And the “IL-6 Median Difference in % Change From Baseline vs Placebo” value [2, 3]?
A: −4.2%

Q: What about the “LDL-C Median Difference in % Change From Baseline vs Placebo” value [2, 3] of the same compound?
A: −5.0%

Q: What about the “Lp-PLA2 Median Difference in % Change From Baseline vs Placebo” value [2, 3] of the same compound?
A: −19.6%

Q: What about the “RLP-C Median Difference in % Change From Baseline vs Placebo” value [2, 3] of the same compound?
A: −23.0%

Q: What about the “TC Median Difference in % Change From Baseline vs Placebo” value [2, 3] of the same compound?
A: −11.1%

Q: What about the “TG Median Difference in % Change From Baseline vs Placebo” value [2, 3] of the same compound?
A: −19.9%

Q: And the “VLDL-C Median Difference in % Change From Baseline vs Placebo” value [2, 3]?
A: −21.0%

Q: What about the “VLDL-TG Median Difference in % Change From Baseline vs Placebo” value [2, 3] of the same compound?
A: −22.9%

Q: And the “Apo C-III Median Difference in % Change From Baseline vs Placebo” value [2, 4]?
A: −16%

Q: And the “TG Median Difference in % Change From Baseline vs Placebo” value [2, 4]?
A: −20%

Q: What about the “hsCRP Median Difference in % Change From Baseline vs Placebo” value [2, 4] of the same compound?
A: −17.9%

Q: What about the “Apo B Change From Baseline, %” value [2, 5] of the same compound?
A: −0.5%

Q: What about the “Apo C-III Change From Baseline, %” value [2, 5] of the same compound?
A: −7.7%

Q: And the “HDL-C Change From Baseline, %” value [2, 5]?
A: −2.1%

Q: What about the “ICAM-1 Change From Baseline, %” value [2, 5] of the same compound?
A: +3.3%

Q: What about the “IL-6 Change From Baseline, %” value [2, 5] of the same compound?
A: −1.6%

Q: What about the “LDL-C Change From Baseline, %” value [2, 5] of the same compound?
A: +2.8%

Q: And the “Lp-PLA2 Change From Baseline, %” value [2, 5]?
A: −13.3%

Q: And the “Non-HDL-C Change From Baseline, %” value [2, 5]?
A: −4.5%

Q: And the “Ox-LDL Change From Baseline, %” value [2, 5]?
A: −2.9%

Q: And the “RLP-C Change From Baseline, %” value [2, 5]?
A: −26.3%

Q: And the “TC Change From Baseline, %” value [2, 5]?
A: −2.6%

Q: And the “VLDL-C Change From Baseline, %” value [2, 5]?
A: −11.8%

Q: And the “hsCRP Change From Baseline, %” value [2, 5]?
A: −10.5%

Q: And the “reduction of TG compared with placebo” value [2, 5]?
A: 19.9%

Q: What about the “reduction of TG compared with placebo” value ([2]; 4 g/day, baseline to week 12, median, listed as EPA-E) of the same compound?
A: about 19.9%

Q: What about the “Apo B End of Treatment” value ([2]; 4 g/day, week 12, median) of the same compound?
A: 93.5 mg/dL

Q: What about the “Apo C-III End of Treatment” value ([2]; 4 g/day, week 12, median) of the same compound?
A: 14.0 mg/dL

Q: What about the Apo C-III End of Treatment (Table 3) ([2]; 4 g/day, week 12, median) of the same compound?
A: 14 mg/dL

Q: And the “HDL-C End of Treatment” value ([2]; 4 g/day, week 12, median)?
A: 36.0 mg/dL

Q: And the “ICAM-1 End of Treatment” value ([2]; 4 g/day, week 12, median)?
A: 300.5 ng/mL

Q: What about the “IL-6 End of Treatment” value ([2]; 4 g/day, week 12, median) of the same compound?
A: 2.8 pg/mL

Q: What about the “LDL-C End of Treatment” value ([2]; 4 g/day, week 12, median) of the same compound?
A: 83.5 mg/dL

Q: And the “Lp-PLA2 End of Treatment” value ([2]; 4 g/day, week 12, median)?
A: 163.0 ng/mL

Q: And the “Non-HDL-C End of Treatment” value ([2]; 4 g/day, week 12, median)?
A: 125.0 mg/dL

Q: What about the “Ox-LDL End of Treatment” value ([2]; 4 g/day, week 12, median) of the same compound?
A: 54.1 U/L

Q: What about the “TC End of Treatment” value ([2]; 4 g/day, week 12, median) of the same compound?
A: 166.0 mg/dL

Q: And the “VLDL-C End of Treatment” value ([2]; 4 g/day, week 12, median)?
A: 38.0 mg/dL

Q: What about the “VLDL-TG End of Treatment” value ([2]; 4 g/day, week 12, median) of the same compound?
A: 154.5 mg/dL

Q: And the “hsCRP End of Treatment” value ([2]; 4 g/day, week 12, median)?
A: 3.7 mg/L

Q: And the “TG End of Treatment” value ([2]; 4 g/day, week 12, median, fasting)?
A: 220.8 mg/dL

— patent US11058661B2, “Compositions and methods for lowering triglycerides in a subject on concomitant statin therapy and having hsCRP levels of at least about 2 mg/L” (priority 2018, dated 2021)
